Test results as given in US10743540B2, “3-amino-1,2,4-triazine derivatives and their use for controlling undesired plant growth” (BAYER CROPSCIENCE AKTIENGESELLSCHAFT, priority 2016, dated 2020).

Experiments:
Format in all cases: in vivo
[1] = system: ABUTH: Abutilon theophrasti; assay: Pre-emergence herbicidal effect; details: application rate 320 g/ha, scored visually after 3 weeks, 100% = plants have died, 0% = like control plants
Procedure, shortened: (§1)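 Compounds are applied pre-emergence as aqueous suspension or emulsion onto soil covering freshly sown seeds in sandy loam. Plants grow under greenhouse conditions, and activity is rated visually at 3 weeks as percent damage compared with untreated controls.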

[2] = system: ALOMY: Alopecurus myosuroides; assay: Pre-emergence herbicidal effect; details: application rate 320 g/ha, scored visually after 3 weeks, 100% = plants have died, 0% = like control plants
Procedure, shortened: as §1

[3] = system: ECHCG: Echinochloa crus-galli; assay: Pre-emergence herbicidal effect; details: application rate 320 g/ha, scored visually after 3 weeks, 100% = plants have died, 0% = like control plants
Procedure, shortened: as §1

[4] = system: LOLMU: Lolium multiflorum; assay: Pre-emergence herbicidal effect; details: application rate 320 g/ha, scored visually after 3 weeks, 100% = plants have died, 0% = like control plants
Procedure, shortened: as §1

[5] = system: MATIN: Matricaria inodora; assay: Pre-emergence herbicidal effect; details: application rate 320 g/ha, scored visually after 3 weeks, 100% = plants have died, 0% = like control plants
Procedure, shortened: as §1

[6] = system: POLCO: Polygonum convolvulus; assay: Pre-emergence herbicidal effect; details: application rate 320 g/ha, scored visually after 3 weeks, 100% = plants have died, 0% = like control plants
Procedure, shortened: as §1

SETVI: Setaria viridis = assay: Pre-emergence herbicidal effect; details: application rate 320 g/ha, scored visually after 3 weeks, 100% = plants have died, 0% = like control plants
Procedure, shortened: as §1

STEME: Stellaria media [7] = assay: Pre-emergence herbicidal effect; details: application rate 320 g/ha, scored visually after 3 weeks, 100% = plants have died, 0% = like control plants
Procedure, shortened: as §1

VERPE: Veronica persica [8] = assay: Pre-emergence herbicidal effect; details: application rate 320 g/ha, scored visually after 3 weeks, 100% = plants have died, 0% = like control plants
Procedure, shortened: as §1

[9] = system: ALOMY: Alopecurus myosuroides; assay: Post-emergence herbicidal effect; details: application rate 320 g/ha, treated at one-leaf stage, assessed visually after about 3 weeks, 100% = plants have died
Procedure, shortened: (§2)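 Monocot and dicot weeds grown in sandy loam in greenhouse, treated at one-leaf stage 2 to 3 weeks after sowing. Compounds as WP or EC sprayed on green parts in water at 600 to 800 L/ha with 0.2% wetting agent. Visual rating after about 3 weeks vs untreated controls (100% = plants dead, 0% = like control).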

[10] = system: AMARE: Amaranthus retroflexus; assay: Post-emergence herbicidal effect; details: application rate 320 g/ha, treated at one-leaf stage, assessed visually after about 3 weeks, 100% = plants have died
Procedure, shortened: as §2

[11] = system: ECHCG: Echinochloa crus-galli; assay: Post-emergence herbicidal effect; details: application rate 320 g/ha, treated at one-leaf stage, assessed visually after about 3 weeks, 100% = plants have died
Procedure, shortened: as §2

STEME: Stellaria media [12] = assay: Post-emergence herbicidal effect; details: application rate 320 g/ha, treated at one-leaf stage, assessed visually after about 3 weeks, 100% = plants have died
Procedure, shortened: as §2

VERPE: Veronica persica [13] = assay: Post-emergence herbicidal effect; details: application rate 320 g/ha, treated at one-leaf stage, assessed visually after about 3 weeks, 100% = plants have died
Procedure, shortened: as §2

VIOTR: Viola tricolor = assay: Post-emergence herbicidal effect; details: application rate 320 g/ha, treated at one-leaf stage, assessed visually after about 3 weeks, 100% = plants have died
Procedure, shortened: as §2

In the case of Cc1ccc2c(c1)[C@H](Nc1nnc(C#N)c(N)n1)CC2 [Example 1.70], the “Herbicidal activity with respect to [%] ABUTH” value (from here on “Herbicidal activity … [%] ABUTH”) [1] is reported as 100%, the “Herbicidal activity with respect to [%] ALOMY” value (“Herbicidal activity … [%] ALOMY” for short) [2] is reported as 100% and the “Herbicidal activity with respect to [%] ECHCG” value (“Herbicidal activity … [%] ECHCG” for short) [3] is reported as 100%. For the same molecule, the “Herbicidal activity with respect to [%] LOLMU” value (“Herbicidal activity … [%] LOLMU” for short) [4] was 100%, the “Herbicidal activity with respect to [%] MATIN” value (“Herbicidal activity … [%] MATIN” for short) [5] was 100% and the “Herbicidal activity with respect to [%] POLCO” value (“Herbicidal activity … [%] POLCO” for short) [6] was 100%. The “Herbicidal activity with respect to [%] SETVI” value (“Herbicidal activity … [%] SETVI” for short) (SETVI: Setaria viridis) was 100%, the “Herbicidal activity with respect to [%] STEME” value (“Herbicidal activity … [%] STEME” for short) (STEME: Stellaria media [7]) was 100% and the “Herbicidal activity with respect to [%] VERPE” value (“Herbicidal activity … [%] VERPE” for short) (VERPE: Veronica persica [8]) was 100%. For the same molecule, the “Herbicidal activity … [%] ALOMY” value [9] was 100%, the “Herbicidal activity with respect to [%] AMARE” value (“Herbicidal activity … [%] AMARE” for short) [10] was 90% and the “Herbicidal activity … [%] ECHCG” value [11] was 100%. For the same molecule, the “Herbicidal activity … [%] STEME” value (STEME: Stellaria media [12]) was 100%, the “Herbicidal activity … [%] VERPE” value (VERPE: Veronica persica [13]) was 100% and the “Herbicidal activity with respect to [%] VIOTR” value (“Herbicidal activity … [%] VIOTR” for short) (VIOTR: Viola tricolor) was 90%.
With Cc1ccc2c(c1)[C@H](Nc1nnc([S+](C)[O-])c(N)n1)CC2 (stereo partly drawn) [Example 1.71] the “Herbicidal activity … [%] ABUTH” value [1] was 100%, the “Herbicidal activity … [%] ALOMY” value [2] was 100% and the “Herbicidal activity … [%] ECHCG” value [3] was 100%. For the same molecule, the “Herbicidal activity … [%] LOLMU” value [4] was 100%, the “Herbicidal activity … [%] MATIN” value [5] was 100% and the “Herbicidal activity … [%] POLCO” value [6] was 100%. For the same molecule, the “Herbicidal activity … [%] SETVI” value (SETVI: Setaria viridis) was 100%, the “Herbicidal activity … [%] STEME” value (STEME: Stellaria media [7]) was 100% and the “Herbicidal activity … [%] VERPE” value (VERPE: Veronica persica [8]) was 100%. For the same molecule, the “Herbicidal activity … [%] ALOMY” value [9] was 90%, the “Herbicidal activity … [%] AMARE” value [10] was 80% and the “Herbicidal activity … [%] ECHCG” value [11] was 100%. For the same molecule, the “Herbicidal activity … [%] STEME” value (STEME: Stellaria media [12]) was 100%, the “Herbicidal activity … [%] VERPE” value (VERPE: Veronica persica [13]) was 80% and the “Herbicidal activity … [%] VIOTR” value (VIOTR: Viola tricolor) was 90%.
In the case of CC(=O)c1nnc(N[C@@H]2CCc3ccc(C)cc32)nc1N [Example 1.72], the “Herbicidal activity … [%] ABUTH” value [1] is reported as 100%, the “Herbicidal activity … [%] ALOMY” value [2] is reported as 100% and the “Herbicidal activity … [%] ECHCG” value [3] is reported as 100%. For the same molecule, the “Herbicidal activity … [%] LOLMU” value [4] was 100%, the “Herbicidal activity … [%] MATIN” value [5] was 100% and the “Herbicidal activity … [%] POLCO” value [6] was 100%. For the same molecule, the “Herbicidal activity … [%] SETVI” value (SETVI: Setaria viridis) was 100%, the “Herbicidal activity … [%] STEME” value (STEME: Stellaria media [7]) was 100% and the “Herbicidal activity … [%] VERPE” value (VERPE: Veronica persica [8]) was 100%. For the same molecule, the “Herbicidal activity … [%] ALOMY” value [9] was 100%, the “Herbicidal activity … [%] AMARE” value [10] was 90% and the “Herbicidal activity … [%] ECHCG” value [11] was 100%. For the same molecule, the “Herbicidal activity … [%] STEME” value (STEME: Stellaria media [12]) was 100%, the “Herbicidal activity … [%] VERPE” value (VERPE: Veronica persica [13]) was 80% and the “Herbicidal activity … [%] VIOTR” value (VIOTR: Viola tricolor) was 90%.
In the case of Cc1ccc2c(c1)[C@H](Nc1nnc(S(C)(=O)=O)c(N)n1)CC2 [Example 1.73], the “Herbicidal activity … [%] ABUTH” value [1] is reported as 100%, the “Herbicidal activity … [%] ALOMY” value [2] is reported as 100% and the “Herbicidal activity … [%] ECHCG” value [3] is reported as 100%. The “Herbicidal activity … [%] LOLMU” value [4] was 100%, the “Herbicidal activity … [%] MATIN” value [5] was 100% and the “Herbicidal activity … [%] POLCO” value [6] was 100%. The “Herbicidal activity … [%] SETVI” value (SETVI: Setaria viridis) was 100%, the “Herbicidal activity … [%] STEME” value (STEME: Stellaria media [7]) was 100% and the “Herbicidal activity … [%] VERPE” value (VERPE: Veronica persica [8]) was 100%. The “Herbicidal activity … [%] ALOMY” value [9] was 100%, the “Herbicidal activity … [%] AMARE” value [10] was 100% and the “Herbicidal activity … [%] ECHCG” value [11] was 100%. The “Herbicidal activity … [%] STEME” value (STEME: Stellaria media [12]) was 100%, the “Herbicidal activity … [%] VERPE” value (VERPE: Veronica persica [13]) was 100% and the “Herbicidal activity … [%] VIOTR” value (VIOTR: Viola tricolor) was 90%.
